In patent US20260201008A1, “SECRETIN-DERIVED GLP1R SELECTIVE AGONISTS” (GUBRA A/S, priority 2023, published 2026):
Read-outs that look alike come from different tables or passages of the source. One block for each compound: values may come before it. Numbered stars: 1 amine (or outer) side, 2 acyl side, 3 side chain; on linkers, the order of the positions; unused ones are H or OH. Square brackets hold non-standard residues; d marks the D form. Side chains are listed from the residue outwards. Peptide text beside a SMILES is read from it. * marks the point of attachment. C20 diacid = O=C(O)CCCCCCCCCCCCCCCCCCC(=O)*; γGlu = O=C(O)[C@H](CCC(=O)[*:2])N[*:1]; AEEA = NCCOCCOCC(=O)O; Aib = CC(C)(N)C(=O)O

Experiments:
SCTR = SCTR (Homo sapiens, UniProt P47872); assay: hSCTR potency, cAMP accumulation in CHO-K1 cells stably overexpressing hSCTR; assay type: cell-based; parameters: alternatively Euroscreen ES-712-AF; FAST-0161L; host or cells: CHO-K1; details: cAMP accumulation, CHO-K1 cells overexpressing hSCTR
SCTR, sequence (P47872 23-440): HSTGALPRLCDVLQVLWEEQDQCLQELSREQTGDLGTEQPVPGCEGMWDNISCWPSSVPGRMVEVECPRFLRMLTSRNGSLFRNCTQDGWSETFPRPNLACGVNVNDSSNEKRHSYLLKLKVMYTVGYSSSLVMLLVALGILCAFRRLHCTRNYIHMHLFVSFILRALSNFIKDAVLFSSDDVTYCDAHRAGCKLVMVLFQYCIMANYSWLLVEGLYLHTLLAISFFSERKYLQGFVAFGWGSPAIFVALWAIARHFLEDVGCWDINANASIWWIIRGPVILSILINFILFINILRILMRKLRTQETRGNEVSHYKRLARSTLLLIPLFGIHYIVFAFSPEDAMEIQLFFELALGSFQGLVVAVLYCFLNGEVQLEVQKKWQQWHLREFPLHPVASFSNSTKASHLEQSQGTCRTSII
Outline: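 Division-arrested CHO-K1 cells stably expressing hSCTR were plated in DPBS with 0.05% casein and 0.5 mM IBMX, then stimulated with test peptide for 30 min at room temperature. cAMP was read by HTRF after one hour. EC50 came from variable-slope sigmoidal nonlinear regression.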

[1] = Fibril formation of crude library peptides (Thioflavin T); assay type: physicochemical; parameters: key: average ThT fluorescence emission at 480 nm (ex 450 nm), raw units; details: Physical stability of peptides
Outline: (§1)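 Values reflect mean ThT emission (ex 450, em 480 nm) over 72 h at 40° C, read every 10 min after 5 min shaking at 700 rpm, plus a single initial absorbance at 600 nm for turbidity. Peptides were at 267 μM, pH 4.0 acetate or pH 7.0 phosphate (50 mM), with 4 μM ThT.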

[2] = Turbidity of crude library peptides (absorbance at 600 nm); assay type: physicochemical; details: Physical stability of peptides
Outline: as §1

GLP1R = GLP1R (Homo sapiens, UniProt P43220); assay: hGLP1R potency, cAMP accumulation in CHO-K1 cells stably overexpressing hGLP1R; assay type: cell-based; parameters: host or cells: CHO-K1; details: for EC50: cAMP accumulation, CHO-K1 cells overexpressing hGLP1R; for SCTR EC50/GLP1R EC50 ratio: selectivity for hGLP1R over hSCTR, cAMP accumulation in CHO-K1 cells; for Selectivity: SCTR EC50/GLP1R EC50 ratio
GLP1R, sequence (P43220 24-463): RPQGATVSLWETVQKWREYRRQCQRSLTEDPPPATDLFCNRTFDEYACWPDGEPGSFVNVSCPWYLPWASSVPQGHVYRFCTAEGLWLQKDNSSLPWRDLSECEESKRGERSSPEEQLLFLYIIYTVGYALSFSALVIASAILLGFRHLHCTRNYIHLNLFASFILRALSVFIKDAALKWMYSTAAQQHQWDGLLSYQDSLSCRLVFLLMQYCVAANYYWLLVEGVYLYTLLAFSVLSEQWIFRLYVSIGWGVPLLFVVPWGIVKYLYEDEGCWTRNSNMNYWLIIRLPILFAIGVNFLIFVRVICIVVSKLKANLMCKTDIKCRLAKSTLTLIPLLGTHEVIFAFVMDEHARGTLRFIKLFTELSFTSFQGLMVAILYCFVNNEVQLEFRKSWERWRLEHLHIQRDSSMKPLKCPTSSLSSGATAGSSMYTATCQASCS
Outline: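 Cells were plated in DPBS with 0.05% casein and 0.5 mM IBMX, then stimulated for 30 min at room temperature with test compound. cAMP was read by TR-FRET after one hour. EC50 came from variable-slope sigmoid nonlinear regression; purified peptides ran as 11-point 3-fold series, n=2.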

[3] = read-out: hSCTR pEC50 (converted)
[4] = read-out: hGLP1R pEC50 (converted)
[5] = read-out: pEC50 hSCTR (converted)
[6] = read-out: pEC50 hGLPR1 (converted)

Structure (SMILES): CC[C@H](C)[C@H](NC(=O)[C@H](Cc1ccccc1)NC(=O)[C@H](CCCNC(=N)N)NC(=O)[C@H](CCC(N)=O)NC(=O)[C@H](CC(C)C)NC(=O)[C@H](C)NC(=O)[C@H](C)NC(=O)CNC(=O)[C@H](CCC(=O)O)NC(=O)[C@H](CC(C)C)NC(=O)[C@H](CC(C)C)NC(=O)[C@H](CCC(=O)O)NC(=O)[C@H](CO)NC(=O)C(C)(C)NC(=O)[C@H](CC(=O)O)NC(=O)[C@H](CO)NC(=O)[C@@H](NC(=O)[C@H](Cc1ccccc1)NC(=O)[C@@H](NC(=O)CNC(=O)[C@H](CCC(=O)O)NC(=O)C(C)(C)NC(=O)[C@@H](N)Cc1c[nH]cn1)[C@@H](C)O)[C@@H](C)O)C(=O)N[C@@H](CCC(N)=O)C(=O)N[C@@H](Cc1c[nH]c2ccccc12)C(=O)N[C@@H](CC(C)C)C(=O)N[C@H](C(N)=O)C(C)C [compound 109] (H-H[Aib]EGTFTSD[Aib]SELLEGAALQRFIQWLV-NH2)
EC50 (SCTR; [3]): 3160 nM
Fibril formation [1]: 3301
Turbidity (pH 7) [2]: 0.08
EC50 (GLP1R; [4]): 0.0794 nM
SCTR EC50/GLP1R EC50 ratio (GLP1R): 39765

Structure (SMILES): CC(C)C[C@H](NC(=O)[C@H](Cc1ccccc1)NC(=O)[C@H](CCCNC(=N)N)NC(=O)[C@H](CCC(N)=O)NC(=O)C(C)(C)NC(=O)[C@H](C)NC(=O)[C@H](C)NC(=O)[C@H](Cc1ccccc1)NC(=O)[C@H](CCC(=O)O)NC(=O)[C@H](CCCCNC(=O)COCCOCCNC(=O)COCCOCCNC(=O)CC[C@H](NC(=O)CCCCCCCCCCCCCCCCCCC(=O)O)C(=O)O)NC(=O)[C@H](CC(C)C)NC(=O)[C@H](Cc1ccc(O)cc1)NC(=O)[C@H](CO)NC(=O)[C@@H](NC(=O)[C@H](CC(=O)O)NC(=O)[C@H](CO)NC(=O)[C@@H](NC(=O)[C@H](Cc1ccccc1)NC(=O)[C@@H](NC(=O)CNC(=O)[C@H](CCC(=O)O)NC(=O)C(C)(C)NC(=O)[C@@H](N)Cc1c[nH]cn1)[C@@H](C)O)[C@@H](C)O)C(C)C)C(=O)N[C@@H](CCC(=O)O)C(=O)N[C@@H](Cc1c[nH]cn1)C(=O)N[C@@H](CC(C)C)C(=O)N[C@H](C(N)=O)C(C)C [compound 46] (H-H[Aib]EGTFTSDVSYLK([AEEA-AEEA-γGlu-C20 diacid])EFAA[Aib]QRFLEHLV-NH2)
EC50 (SCTR; [5]): 3980 nM
Fibril formation [1]: 16732
Turbidity (pH 7) [2]: 0.08
Selectivity (GLP1R): 67329
EC50 (GLP1R; [6]): 0.0501 nM

Structure (SMILES): CC(C)C[C@H](NC(=O)[C@H](Cc1ccccc1)NC(=O)[C@H](CCCNC(=N)N)NC(=O)[C@H](CCC(N)=O)NC(=O)[C@H](CCC(=O)O)NC(=O)[C@H](C)NC(=O)[C@H](C)NC(=O)[C@H](CCC(=O)O)NC(=O)[C@H](CCC(=O)O)NC(=O)[C@H](CCCCNC(=O)COCCOCCNC(=O)COCCOCCNC(=O)CC[C@H](NC(=O)CCCCCCCCCCCCCCCCCCC(=O)O)C(=O)O)NC(=O)[C@H](CC(C)C)NC(=O)[C@H](CCC(=O)O)NC(=O)[C@H](CO)NC(=O)[C@@H](NC(=O)[C@H](CC(=O)O)NC(=O)[C@H](CO)NC(=O)[C@@H](NC(=O)[C@H](Cc1ccccc1)NC(=O)[C@@H](NC(=O)CNC(=O)[C@H](CCC(=O)O)NC(=O)C(C)(C)NC(=O)[C@@H](N)Cc1c[nH]cn1)[C@@H](C)O)[C@@H](C)O)C(C)C)C(=O)N[C@@H](CCC(=O)O)C(=O)N[C@@H](Cc1c[nH]cn1)C(=O)N[C@@H](CC(C)C)C(=O)N[C@H](C(N)=O)C(C)C [compound 51] (H-H[Aib]EGTFTSDVSELK([AEEA-AEEA-γGlu-C20 diacid])EEAAEQRFLEHLV-NH2)
EC50 (SCTR; [5]): 2000 nM
Fibril formation [1]: 8475
Turbidity (pH 7) [2]: 0.09
Selectivity (GLP1R): 63009
EC50 (GLP1R; [6]): 0.0316 nM

Structure (SMILES): CC[C@H](C)[C@H](NC(=O)C(C)(C)NC(=O)[C@H](C)NC(=O)[C@H](CCC(=O)O)NC(=O)[C@H](CCC(=O)O)NC(=O)[C@H](CCCCNC(=O)COCCOCCNC(=O)COCCOCCNC(=O)CC[C@H](NC(=O)CCCCCCCCCCCCCCCCCCC(=O)O)C(=O)O)NC(=O)[C@H](CC(C)C)NC(=O)[C@H](Cc1ccc(O)cc1)NC(=O)[C@H](CO)NC(=O)[C@@H](NC(=O)[C@H](CC(=O)O)NC(=O)[C@H](CO)NC(=O)[C@@H](NC(=O)[C@H](Cc1ccccc1)NC(=O)[C@@H](NC(=O)CNC(=O)[C@H](CCC(=O)O)NC(=O)C(C)(C)NC(=O)[C@@H](N)Cc1c[nH]cn1)[C@@H](C)O)[C@@H](C)O)C(C)C)C(=O)N[C@@H](CCC(N)=O)C(=O)N[C@@H](CCCNC(=N)N)C(=O)N[C@@H](Cc1ccccc1)C(=O)N[C@@H](CC(C)C)C(=O)N[C@@H](CCC(=O)O)C(=O)N[C@@H](Cc1c[nH]cn1)C(=O)N[C@@H](CC(C)C)C(=O)N[C@H](C(N)=O)C(C)C [compound 139] (H-H[Aib]EGTFTSDVSYLK([AEEA-AEEA-γGlu-C20 diacid])EEA[Aib]IQRFLEHLV-NH2)
EC50 (SCTR; [3]): 126 nM
Fibril formation [1]: 4010
Turbidity (pH 7) [2]: 0.09
EC50 (GLP1R; [4]): 0.00631 nM
SCTR EC50/GLP1R EC50 ratio (GLP1R): 21979

Structure (SMILES): CC(C)C[C@H](NC(=O)[C@H](Cc1ccccc1)NC(=O)[C@H](CCCNC(=N)N)NC(=O)[C@H](CCC(N)=O)NC(=O)[C@H](CC(C)C)NC(=O)C(C)(C)NC(=O)[C@H](C)NC(=O)[C@H](CCC(=O)O)NC(=O)[C@H](CCC(=O)O)NC(=O)[C@H](CCCCNC(=O)COCCOCCNC(=O)COCCOCCNC(=O)CC[C@H](NC(=O)CCCCCCCCCCCCCCCCCCC(=O)O)C(=O)O)NC(=O)[C@H](CC(C)C)NC(=O)[C@H](Cc1ccc(O)cc1)NC(=O)[C@H](CO)NC(=O)[C@@H](NC(=O)[C@H](CC(=O)O)NC(=O)[C@H](CO)NC(=O)[C@@H](NC(=O)[C@H](Cc1ccccc1)NC(=O)[C@@H](NC(=O)CNC(=O)[C@H](CCC(=O)O)NC(=O)C(C)(C)NC(=O)[C@@H](N)Cc1c[nH]cn1)[C@@H](C)O)[C@@H](C)O)C(C)C)C(=O)N[C@@H](CCC(=O)O)C(=O)N[C@@H](CCC(=O)O)C(=O)N[C@@H](CC(C)C)C(=O)N[C@H](C(N)=O)C(C)C [compound 151] (H-H[Aib]EGTFTSDVSYLK([AEEA-AEEA-γGlu-C20 diacid])EEA[Aib]LQRFLEELV-NH2)
EC50 (SCTR; [3]): 126 nM
Fibril formation [1]: 3061
Turbidity (pH 7) [2]: 0.08
EC50 (GLP1R; [4]): 0.0251 nM
SCTR EC50/GLP1R EC50 ratio (GLP1R): 5170

Second part, the compound after the results:

EC50 (SCTR; [3]): 158 nM
Fibril formation [1]: 10893
Turbidity (pH 7) [2]: 0.08
EC50 (GLP1R; [4]): 0.00398 nM
SCTR EC50/GLP1R EC50 ratio (GLP1R): 42658
Structure (SMILES): CC(C)C[C@H](NC(=O)[C@H](Cc1ccccc1)NC(=O)[C@H](CCCNC(=N)N)NC(=O)[C@H](CCC(N)=O)NC(=O)[C@H](CCC(N)=O)NC(=O)[C@H](C)NC(=O)[C@H](C)NC(=O)C(C)(C)NC(=O)[C@H](CCC(=O)O)NC(=O)[C@H](CCCCNC(=O)COCCOCCNC(=O)COCCOCCNC(=O)CC[C@H](NC(=O)CCCCCCCCCCCCCCCCCCC(=O)O)C(=O)O)NC(=O)[C@H](CC(C)C)NC(=O)[C@@H](NC(=O)[C@H](CO)NC(=O)[C@@H](NC(=O)[C@H](CC(=O)O)NC(=O)[C@H](CO)NC(=O)[C@@H](NC(=O)[C@H](Cc1ccccc1)NC(=O)[C@@H](NC(=O)CNC(=O)[C@H](CCC(=O)O)NC(=O)C(C)(C)NC(=O)[C@@H](N)Cc1c[nH]cn1)[C@@H](C)O)[C@@H](C)O)C(C)C)[C@@H](C)O)C(=O)N[C@@H](CCC(=O)O)C(=O)N[C@@H](Cc1c[nH]cn1)C(=O)N[C@@H](CC(C)C)C(=O)N[C@H](C(N)=O)C(C)C [compound 88] (H-H[Aib]EGTFTSDVSTLK([AEEA-AEEA-γGlu-C20 diacid])E[Aib]AAQQRFLEHLV-NH2)

EC50 (SCTR; [5]): 2000 nM
Fibril formation [1]: 14290
Turbidity (pH 7) [2]: 0.09
Selectivity (GLP1R): 86896
EC50 (GLP1R; [6]): 0.02 nM
Structure (SMILES): CC(C)C[C@H](NC(=O)[C@H](Cc1ccccc1)NC(=O)[C@H](CCCNC(=N)N)NC(=O)[C@H](CCC(N)=O)NC(=O)C(C)(C)NC(=O)[C@H](C)NC(=O)[C@H](C)NC(=O)[C@@H](NC(=O)[C@H](CCC(=O)O)NC(=O)[C@H](CCCCNC(=O)COCCOCCNC(=O)COCCOCCNC(=O)CC[C@H](NC(=O)CCCCCCCCCCCCCCCCCCC(=O)O)C(=O)O)NC(=O)[C@H](CC(C)C)NC(=O)[C@H](CCC(=O)O)NC(=O)[C@H](CO)NC(=O)[C@@H](NC(=O)[C@H](CC(=O)O)NC(=O)[C@H](CO)NC(=O)[C@@H](NC(=O)[C@H](Cc1ccccc1)NC(=O)[C@@H](NC(=O)CNC(=O)[C@H](CCC(=O)O)NC(=O)C(C)(C)NC(=O)[C@@H](N)Cc1c[nH]cn1)[C@@H](C)O)[C@@H](C)O)C(C)C)[C@@H](C)O)C(=O)N[C@@H](CCC(=O)O)C(=O)N[C@@H](Cc1c[nH]cn1)C(=O)N[C@@H](CC(C)C)C(=O)N[C@H](C(N)=O)C(C)C [compound 45] (H-H[Aib]EGTFTSDVSELK([AEEA-AEEA-γGlu-C20 diacid])ETAA[Aib]QRFLEHLV-NH2)
